# Test results published in US10278974B2 (Pfizer Inc., priority 2010, dated 2019).
# Columns and labels:
# Type in all cases: physicochemical
# [1] = Physical stability on storage, followed by PXRD; conditions: two weeks of storage at 70° C. with 75% relative humidity
# Procedure: A PXRD pattern for maleate polymorph Form B was measured at: 1) an initial time point and 2): two weeks after storage at 70° C. with 75% relative humidity (RH).
# A PXRD pattern for S-camsylate polymorph Form A was measured at: 1) an initial time point and 2): two weeks after storage at 70° C. with 75% relative humidity (RH).
# [2] = Hygroscopicity by dynamic vapor sorption (DVS); conditions: 30° C., 0 to 90% RH in 15% RH intervals
# Procedure: Solid (20-25 mg) was exposed to a controlled relative humidity (% RH) and temperature environment (30° C.), and the weight change was recorded over time. The humidity was stepped from 0 to 90% RH in 15% RH intervals.
# [3] = Susceptibility of salt forms to hydration; conditions: compared to other salt forms of Compound 1; solid dosage form suitability
SMILES,change of PXRD pattern after storage (physical stability) [1],hygroscopicity indicated by dynamic vapor sorption isotherm [2],susceptibility to hydration [3]
CNCc1ccc(-c2[nH]c3cc(F)cc4c3c2CCNC4=O)cc1.O=C(O)C=CC(=O)O [maleate polymorph Form B],did not change significantly,non-hygroscopic,not susceptible to hydration
CC1(C)[C@@H]2CC[C@@]1(CS(=O)(=O)O)C(=O)C2.CNCc1ccc(-c2[nH]c3cc(F)cc4c3c2CCNC4=O)cc1 [S-camsylate polymorph Form A],did not change significantly,non-hygroscopic,not susceptible to hydration
